Data taken from paper PMC3745430, “Novel Multiplexed Assay for Identifying SH2 Domain Antagonists of STAT Family Proteins” (PLoS ONE, 2013).
Read-outs that look alike come from different tables or passages of the source. Square brackets hold non-standard residues; d marks the D form. Primed or numbered codes have the meaning given here. Ends that are not written are not given here. pY = N[C@@H](Cc1ccc(OP(=O)(O)O)cc1)C(=O)O; FITC′ = 5-carboxyfluorescein label; DIG = digoxygenin label; C2 = two carbon spacer; C6 = C6 spacer

Key:
[1] = test system: STAT3 nuclear translocation in HeLa cells; experiment: STAT3 nuclear translocation assay in oncostatin M-stimulated HeLa cells; format: cell-based
Experimental: The Cellomics STAT3 Activation Kit (Thermo Scientific) was used for the nuclear translocation assay. HeLa cells were incubated in a 96-well microplate for 24 h. Cells were pretreated with the test compounds for 1 hour, and 30 ng/mL (w/v) of oncostatin M was applied and the mixture was incubated for 10 min. The subsequent procedures were performed according to the manufacturer’s instructions. The cells were scanned with an ArrayScan VTI reader (Thermo Scientific), and analyzed with the Cytoplasm to Nucleus Translocation Application. The mean fluorescent values in the nuclei were calculated. The signals for vehicle treatment and no treatment (without oncostatin M) were represented as 100% and 0%, respectively, and the relative signal intensity was also calculated.

[2] = test system: JAK2; design: method as in PMID 11934592; conditions: in vitro assay; cited from earlier work
[3] = test system: JAK3; design: method as in PMID 11934592; conditions: in vitro assay; cited from earlier work
[4] = test system: TYK2; design: method as in PMID 11934592; conditions: in vitro assay; cited from earlier work
[5] = target: T1, STAT3(136–705) (Homo sapiens, UniProt P40763); experiment: AlphaScreen competition of FITC-C6-GpYLPQTV binding to STAT3(136–705); conditions: AlphaScreen system, competitor (Figure S2)
T1 construct: amino acids 136 to 705 of human STAT3 and 136 to 703 of human STAT5b; 6×His-tag (N); made in house; host or cells: E. coli BL-21 Star (DE3) pLysS co-transformed with pBirAcm
Experimental: To acquire the signal window, the length of the spacer between DIG and the peptide sequence in the DIG-labeled GpYLPQTV peptide was investigated by using the single STAT3-SH2 binding assay. A six carbon (C6) and a two carbon (C2) peptide spacer were used (Figure 3A). […] The DIG-C6-GpYLPQTV peptide was chosen as the STAT3 ligand. When 100 nM STAT3(136–705) was used as the biotinylated protein, 2.0 nM DIG-C6-GpYLPQTV produced the maximum signal for the STAT3-SH2 binding (Figure 3B, Figure S1). For the STAT5b-SH2 binding, FITC-C6-GpYLVLDKW was used as the STAT5b ligand. The signals increased in a peptide dose-dependent manner (Figure S1). When 20 nM STAT5b(136–703) was used, 2.5 nM FITC-C6-GpYLVLDKW produced the maximum signal for STAT5b-SH2 binding. […] Therefore, although DIG-C2-GpYLPQTV could bind to STAT3, it was not suitable for the Alpha system. The anti-DIG antibody may access the DIG-C6-GpYLPQTV peptide-STAT3 protein complex in preference to the DIG-C2-GpYLPQTV peptide complex because of the length of the spacer.
Supplementary file pone.0071646.s002.tif: Figure S2 Inhibition of STAT3-SH2 binding by DIG-C2-GpYLPQTV. DIG-C2-GpYLPQTV was used as a competitor in the binding assay for STAT3(136–705) protein and FITC-C6-GpYLPQTV peptide in the single assay. Each point is the mean from three replicates, and the error bars represent the standard deviation from the mean. […]

[6] = target: T1, STAT3(136–705); experiment: Single STAT3-SH2 binding assay (AlphaLISA); conditions: single assay, non-labeled peptides (Figure 4A)
Experimental: (§1) Both AlphaLISA and AlphaScreen are bead-based nonradioactive binding assay systems for detecting biomolecular interactions in a microplate format. The binding of the biological partners brings the donor and acceptor beads into close proximity, and AlphaLISA produces a specific signal around 615 nm and AlphaScreen emits a broad signal between 520 and 620 nm. The assays were performed in a final reaction volume of 25 µL of the assay buffer, which contained 10 mM HEPES-NaOH (pH 7.4), 50 mM NaCl, 1 mM EDTA (pH 8.0), 0.1% (w/v) NP-40, and 10 ng/µL (w/v) BSA in a 96-well microplate at 25°C. The labeled phosphotyrosyl (pTyr, pY) peptide probes were DIG-GpYLPQTV and FITC-GpYLVLDKW for STAT3 and STAT5b, respectively. In the single assay for STAT3 binding, 100 nM STAT3(136–705) protein was incubated with a test compound dissolved in DMSO for 30 min, and 1.0 nM DIG-GpYLPQTV was added and the mixture was incubated for 90 min. Streptavidin-coated donor beads (0.25 µg/well) and anti-DIG AlphaLISA acceptor beads (0.25 µg/well) were added and incubated for 90 min before the signals were measured with EnVison Xcite (PerkinElmer Life Sciences). In the single assay for STAT5b binding, 20 nM STAT5b(136–703) was incubated with a test compound for 30 min, and 1.0 nM FITC-GpYLVLDKW was added and incubated for 90 min. Streptavidin-coated donor beads (0.25 µg/well) and anti-FITC AlphaScreen acceptor beads (0.25 µg/well) were added and incubated for 90 min before the signals were measured with EnVison Xcite. In the multiplexed assay, 100 nM STAT3(136–705) and 20 nM STAT5b(136–703) were incubated with a test compound for 30 min, and 1.0 nM DIG-GpYLPQTV and 1.0 nM FITC-GpYLVLDKW were added and incubated for 90 min. Streptavidin-coated donor beads (0.50 µg/well), anti-DIG AlphaLISA (0.25 µg/well), and anti-FITC AlphaScreen acceptor beads (0.25 µg/well) were added and incubated for 90 min before the signals were measured with EnVison Xcite. AlphaLISA and AlphaScreen signals for measuring STAT3- and STAT5b-SH2 binding, respectively, can be separately measured by using a dysprosium 572 nm and a europium 615 nm narrow bandwidth filter. In inhibitory assays, these signals for the bound state and the free state were represented as 0% and 100% inhibition, respectively. The bound state was measured by incubating the labeled peptide and the protein without test compounds. The free state was measured by incubating the same mixture with an additional 10 µM non-labeled peptide contained phosphorylated tyrosine, which competitively binds to its corresponding protein. The IC50 value was calculated by Graph pad prism 4.0. The mean and the standard error (SEM) of IC50 values were determined from three independent experiments. The Z’ value was calculated using the equation Z’ = 1–(3×SD_bound +3×SD_free)/(Signal_bound – Signal_free). STAT1 and Grb2 binding assays were performed as described in previous report. In the assays for selectivity of Compound 1, 100 pM biotinylated DIG or 100 pM biotinylated FITC was incubated with 10 µM or 30 µM Compound 1 for 30 min. Streptavidin-coated donor beads (0.25 µg/well) and anti-DIG AlphaLISA acceptor beads (0.25 µg/well) or anti-FITC AlphaScreen acceptor beads (0.25 µg/well) were added and incubated for 90 min before the signals were measured with EnVison Xcite.

[7] = target: T2, STAT5b(136–703) (Homo sapiens, UniProt P51692); experiment: Single STAT5b-SH2 binding assay (AlphaScreen); conditions: single assay, non-labeled peptides (Figure 4B)
T2 construct: 136 to 703 of human STAT5b; 6×His-tag (N); made in house; host or cells: E. coli BL-21 Star (DE3) pLysS co-transformed with pBirAcm
T2 sequence (P51692 136-703): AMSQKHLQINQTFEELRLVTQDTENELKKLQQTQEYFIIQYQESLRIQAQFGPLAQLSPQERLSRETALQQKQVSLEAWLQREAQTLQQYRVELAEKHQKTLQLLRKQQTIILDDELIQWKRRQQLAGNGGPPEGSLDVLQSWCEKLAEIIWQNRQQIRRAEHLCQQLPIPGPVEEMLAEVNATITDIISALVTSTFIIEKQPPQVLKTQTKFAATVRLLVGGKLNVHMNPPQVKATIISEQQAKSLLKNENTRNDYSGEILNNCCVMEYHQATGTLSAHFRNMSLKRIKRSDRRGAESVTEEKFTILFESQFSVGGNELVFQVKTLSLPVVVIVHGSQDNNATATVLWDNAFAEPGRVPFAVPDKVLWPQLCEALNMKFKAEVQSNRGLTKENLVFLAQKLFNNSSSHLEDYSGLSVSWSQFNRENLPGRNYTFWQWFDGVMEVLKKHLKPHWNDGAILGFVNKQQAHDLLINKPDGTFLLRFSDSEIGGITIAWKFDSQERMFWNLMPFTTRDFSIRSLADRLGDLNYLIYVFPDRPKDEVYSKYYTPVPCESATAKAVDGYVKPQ
Experimental: as §1

[8] = target: T1, STAT3(136–705); experiment: Multiplexed Alpha assay, STAT3-SH2 binding (AlphaLISA)
Experimental: as §1

[9] = target: T2, STAT5b(136–703); experiment: Multiplexed Alpha assay, STAT5b-SH2 binding (AlphaScreen)
Experimental: as §1

[10] = target: T3, STAT5b(136–703) (human, UniProt P51692 136-703, biotin on the Avi-tag); experiment: AlphaScreen or HTRF; AlphaScreen, single STAT5b-SH2 assay, competition: 20 nM biotinylated STAT5b(136-703) incubated with non-labelled peptide, then 1.0 nM FITC-GpYLVLDKW for 90 min; streptavidin donor and anti-FITC acceptor beads; 10 mM HEPES-NaOH pH 7.4, 50 mM NaCl, 1 mM EDTA, 0.1% NP-40, BSA, 25°C; conditions: both partners purified
T3 construct: also called biotinylated STAT5b protein; truncated form of STAT5b; source: E. coli BL-21 Star (DE3) pLysS with pBirAcm (biotinylated in the cells), purified (HisTrap HP, dialysis); not shown: Avi-tag, N-terminal, kept
T3 sequence (looked up): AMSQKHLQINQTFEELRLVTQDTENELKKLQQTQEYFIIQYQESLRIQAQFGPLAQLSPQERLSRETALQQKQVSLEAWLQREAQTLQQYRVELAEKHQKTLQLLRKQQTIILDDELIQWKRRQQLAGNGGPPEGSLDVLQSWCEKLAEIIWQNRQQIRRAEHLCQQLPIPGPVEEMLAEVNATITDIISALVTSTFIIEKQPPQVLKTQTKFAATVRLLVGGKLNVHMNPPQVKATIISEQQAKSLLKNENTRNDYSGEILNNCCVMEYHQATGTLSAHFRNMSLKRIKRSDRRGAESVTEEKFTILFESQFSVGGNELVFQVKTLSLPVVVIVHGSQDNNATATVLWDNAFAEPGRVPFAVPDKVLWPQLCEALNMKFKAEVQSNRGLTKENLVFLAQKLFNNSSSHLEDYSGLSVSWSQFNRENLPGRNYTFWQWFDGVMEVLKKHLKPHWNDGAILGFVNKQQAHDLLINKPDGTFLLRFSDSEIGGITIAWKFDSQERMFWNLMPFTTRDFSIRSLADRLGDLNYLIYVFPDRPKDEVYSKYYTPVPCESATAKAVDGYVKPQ

[11] = multiplexed binding assay, mean and SEM, three independent experiments, read-out: IC50 STAT3-SH2 binding (STAT3)
[12] = multiplexed binding assay, mean and SEM, three independent experiments, read-out: IC50 STAT5b-SH2 binding (STAT5b)
[13] = multiplexed assay, read-out: IC50 for STAT3-SH2 binding
[14] = multiplexed assay, read-out: IC50 for STAT5b-SH2 binding

T1 sequence (P40763 136-705): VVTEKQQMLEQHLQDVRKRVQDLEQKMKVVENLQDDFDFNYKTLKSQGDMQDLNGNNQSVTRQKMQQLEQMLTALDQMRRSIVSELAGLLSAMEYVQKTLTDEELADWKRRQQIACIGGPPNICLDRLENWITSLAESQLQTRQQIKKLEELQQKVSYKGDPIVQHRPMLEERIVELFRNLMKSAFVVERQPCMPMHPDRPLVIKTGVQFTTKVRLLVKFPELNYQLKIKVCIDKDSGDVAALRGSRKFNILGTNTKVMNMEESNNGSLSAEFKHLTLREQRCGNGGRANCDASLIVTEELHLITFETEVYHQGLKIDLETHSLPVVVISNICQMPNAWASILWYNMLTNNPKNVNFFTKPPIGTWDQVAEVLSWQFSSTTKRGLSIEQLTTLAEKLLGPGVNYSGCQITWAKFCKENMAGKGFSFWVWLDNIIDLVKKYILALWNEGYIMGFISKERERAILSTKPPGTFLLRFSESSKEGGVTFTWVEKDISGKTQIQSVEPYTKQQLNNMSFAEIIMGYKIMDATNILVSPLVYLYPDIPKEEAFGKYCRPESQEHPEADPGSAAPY

Molecule: CC(C)(C)c1nc2c3cc[nH]c(=O)c3c3cc(F)ccc3c2[nH]1 [JAK inhibitor 1]
- Fluorescent intensity of STAT3 in the nuclei, of the vehicle treatment ([1]; 1 µM, positive control, HeLa): 61%

Molecule: DIG-C2-GpYLPQTV ({DIG-C2}-G[pY]LPQTV) [digoxygenin-labeled GpYLPQTV peptide with two carbon spacer]
- Inhibition of binding between FITC-C6-GpYLPQTV and STAT3(136–705) [5]: inhibited

Molecule: Ac-GYLVLDKW-NH2
- Inhibitory effect on STAT3-SH2 binding [6]: had no effect
- Inhibitory effect on STAT5b-SH2 binding [7]: had no effect

Molecule: O=C1C(Cl)=C(N2CCOCC2)C(=O)c2ccc(S(=O)(=O)N3CCOCC3)cc21 [Compound 6]
- IC50 [8, 11]: 3.8 ± 0.064 µM
- IC50 [9, 12]: 13 ± 0.38 µM

Molecule: O=[N+]([O-])c1ccc2c(c1)S(=O)(=O)C=C2 [Stattic, reference compound]
- IC50 [8, 13]: 50 µM
- IC50 [9, 14]: 175 µM

Molecule: O=C1C(Cl)=C(Cl)C(=O)c2ccccc21 [Compound 5]
- IC50 [8, 11]: 12 ± 0.59 µM
- IC50 [9, 12]: 20 ± 0.33 µM

Molecule: CC(=O)NC1=C(Cl)C(=O)c2ccccc2C1=O [Compound 4]
- IC50 [8, 11]: 23 ± 0.68 µM
- IC50 [9, 12]: > 30 µM

Molecule: Ac-GpYLPQTV-NH2 (Ac-G[pY]LPQTV-NH2) [non-labeled phosphotyrosine peptide for STAT3]
- Inhibitory effect on STAT3-SH2 binding [6]: inhibited
- Inhibitory effect on STAT5b-SH2 binding [7]: had no effect

Molecule: Ac-GYLPQTV-NH2
- Inhibitory effect on STAT3-SH2 binding [6]: had no effect
- Inhibitory effect on STAT5b-SH2 binding [7]: had no effect

Molecule: O=C(NN=Cc1coc2ccccc2c1=O)c1cccnc1 [STAT5 inhibitor, N′-((4-Oxo-4H-chromen-3-yl)methylene)nicotinohydrazide, reference compound]
- IC50 [8, 13]: 161 µM
- IC50 [9, 14]: 2.8 µM

Molecule: CN1CCN(C2=C(Cl)C(=O)c3ccccc3C2=O)CC1 [Compound 7]
- IC50 [8, 11]: > 30 µM
- IC50 [9, 12]: > 30 µM
- Effect on STAT3 nuclear translocation ([1]; HeLa cells, pretreatment before oncostatin M (Figure 6, Figure S9)): did not inhibit

Molecule: Ac-GpYLVLDKW-NH2
- Inhibitory effect on STAT3-SH2 binding [6]: had no effect
- Inhibitory effect on STAT5b-SH2 binding [7]: inhibited

Molecule: CCOc1ccccc1NC1=C(Cl)C(=O)c2ccccc2C1=O [Compound 2]
- Increase in inhibitory activity against STAT3 in comparison with Compound 1 ([8]; multiplexed assay): approximately 3 fold
- IC50 [8, 11]: 1.5 ± 0.052 µM
- Increase in inhibitory activity against STAT5b in comparison with Compound 1 ([9]; multiplexed assay): ~8 fold
- IC50 [9, 12]: 1.4 ± 0.019 µM

B1: FITC-C6-GpYLVLDKW (peptide)
peptide: {FITC′-C6}-G[pY]LVLDKW
notes: the leading G is not the receptor's residue at that place; also called FITC-GpYLVLDKW; FITC-labeled GpYLVLDKW peptide; source: synthetic peptide (synthesized by Nippi Biomatrix Laboratory)
- binding result [10]: binds

B2: Ac-GpYLVLDKW-NH2 (peptide)
peptide: Ac-G[pY]LVLDKW-NH2
SMILES: CC(=O)NCC(=O)N[C@@H](Cc1ccc(OP(=O)(O)O)cc1)C(=O)N[C@@H](CC(C)C)C(=O)N[C@H](C(=O)N[C@@H](CC(C)C)C(=O)N[C@@H](CC(=O)O)C(=O)N[C@@H](CCCCN)C(=O)N[C@@H](Cc1c[nH]c2ccccc12)C(N)=O)C(C)C
notes: the leading G is not the receptor's; also called non-labeled peptide for STAT5b
- binding result [10]: binds
